Assays:
Format in all cases: in vivo
[1] = system: mucin coat in the small intestine; test: Mucin coat in rat small intestine, alcian blue labeling; details: old rats (104 weeks), oral in drinking water, two weeks, vs old non-treated
From the text: (§1) Male Wistar rats (Harlan Sprague Dawley Inc., Indianapolis, IN) at maturity (4 months, 300 to 350 gm) and old age (24 months, 375 to 450 gm) were included in the study. The animals were maintained on standard laboratory chow (8604 Teklad rodent diet; Harlan Laboratories, Indianapolis, IN) without restriction and water ad libitum and maintained in separated room without pathogen-free conditions. […] A subgroup of old animals was given over two weeks a pancreatic serine protease (trypsin) inhibitor (tranexamic acid, 14 days) in drinking water (137 mM, exchanged daily) which at a minimum fluid consumption of 40 ml/day amounts to a minimum dose of 0.39 gm/kg/day for 350 gm body weight. […]
(§2) Images of the immunolabel density were recorded from low power overviews of the tissue (10× objective, numerical aperture 0.25) under standard light conditions. Images were digitally analyzed to minimize operator error (NIH Image, 1.61, public domain software, spatial resolution of 640×480 pixel).
The intensity of the immune substrate label was measured after color extraction in form of light intensity (1 corresponding to white, 256 corresponding to black). The mean label density per group (with 3 animals per group) was determined from the average label density per animal (determined from 5 tissue sections/animal, 30 images/section).

[2] = system: pancreatic trypsin; test: Pancreatic trypsin accumulation in rat small intestine, immunohistochemistry; details: old rats, oral, two weeks; increase in old vs young rats
From the text: (§3) Male Wistar rats (Harlan Sprague Dawley Inc., Indianapolis, IN) at maturity (4 months, 300 to 350 gm) and old age (24 months, 375 to 450 gm) were included in the study. The animals were maintained on standard laboratory chow (8604 Teklad rodent diet; Harlan Laboratories, Indianapolis, IN) without restriction and water ad libitum and maintained in separated room without pathogen-free conditions. […] A subgroup of old animals was given over two weeks a pancreatic serine protease (trypsin) inhibitor (tranexamic acid, 14 days) in drinking water (137 mM, exchanged daily) which at a minimum fluid consumption of 40 ml/day amounts to a minimum dose of 0.39 gm/kg/day for 350 gm body weight.
(§4) Small intestine: Full thickness tissue blocks of the wall of proximal jejunum (3 by 5 mm) were fixed from all sides in 10% formaldehyde. Pancreatic trypsin and amylase were detected with primary (MoAb (D-1) and MoAb (G-10), respectively), and secondary antibodies labeled with DAB (Peroxidase Substrate Kit, ab64238, ABCAM).
as §2, with “pixel). […]” for “pixel).”

[3] = system: amylase; test: Pancreatic amylase accumulation in rat small intestine, immunohistochemistry; details: old rats, oral, two weeks; increase in old vs young rats
From the text: as §3, §4
as §2, with “pixel). […]” for “pixel).”

[4] = system: pancreatic trypsin; test: Pancreatic trypsin accumulation in rat skin tissue, immunohistochemistry; details: old rats, two weeks
From the text: as §1
To determine on the tissue sections the immunolabel density and distribution of pancreatic serine proteases, pancreatic trypsin MoAb (D-1): sc-137077(Santa Cruz) primary antibody was used, followed by secondary antibodies (MP-7601 for anti-rabbit IgG; MP-7602 for anti-mouse IgG; ImmPRESS Excel staining kit peroxidase). […] No counterstain was applied to facilitate quantitative label intensity measurements and since cellular and vascular structures are readily identified. […] All procedures were carried out under standardized conditions to permit quantitative comparison of label densities. […]

[5] = system: collagen; test: Rat skin tissue collagen fragmentation, collagen hybridizing peptide (B-CHP) labeling; details: old rats, two weeks
From the text: as §1
Tissue sections were stained with B-CHP (stock solution, 150 mM; final applied solution 7.5. mM). […] The B-CHP label intensity on the sections was recorded by digital microscopy.
as §2
The intensity of the immune substrate label was measured after color extraction in form of light intensity (1 corresponding to white, 256 corresponding to black). […]

NC[C@H]1CC[C@H](C(=O)O)CC1 [tranexamic acid]
mucin coat in the small intestine (alcian blue label) [1]: restoration of the mucin coat
pancreatic trypsin label density in the small intestine [2]: attenuated
amylase label density in the small intestine [3]: attenuated
pancreatic trypsin accumulation in skin tissue [4]: prevents trypsin accumulation
collagen fragmentation in skin tissue (CHP) [5]: prevents collagen fragmentation
